Test results published in US8193191B2, “Urotensin II receptor antagonists” (Janssen Pharmaceutica N.V., priority 2006, dated 2012).
Values joined by “and” are separate entries in the source; they are usually repeats but may differ in a detail not shown here. Identical values can stand only once. Like-named read-outs stand apart in the source and are kept apart here.

What was measured:
[1] = target: T1, rat GPR14 (U-II receptor) (Rattus norvegicus, UniProt P49684); assay: Rat UII Calcium Mobilization FLIPR Assay; format: cell-based; conditions: for inhibition at 10 µM / inhibition at 50 µM: CHO, 5 min, agonist-induced Ca2+ mobilization (FLIPR), CHO cells with rat UII receptor; for inhibition at 10 µM: 10 μM compound, read-out: % I @ 10; for inhibition at 50 µM: 50 μM compound, read-out: % I @ 50
T1 construct: expressed in transfected cells
T1 sequence (P49684 1-386): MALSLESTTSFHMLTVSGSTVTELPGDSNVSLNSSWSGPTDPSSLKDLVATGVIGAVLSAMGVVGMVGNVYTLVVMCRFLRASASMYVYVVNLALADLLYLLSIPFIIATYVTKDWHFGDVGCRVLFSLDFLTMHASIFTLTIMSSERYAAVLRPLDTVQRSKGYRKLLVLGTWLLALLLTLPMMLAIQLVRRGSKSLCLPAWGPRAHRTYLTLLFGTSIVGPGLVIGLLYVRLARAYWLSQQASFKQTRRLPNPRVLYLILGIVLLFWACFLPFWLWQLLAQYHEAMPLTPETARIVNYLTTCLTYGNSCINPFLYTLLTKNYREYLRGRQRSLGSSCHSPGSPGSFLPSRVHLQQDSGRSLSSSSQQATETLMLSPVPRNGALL
In short: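 CHO cells stably expressing rat U-II receptor, seeded 24 h before assay, were loaded with FLIPR calcium dye in HBSS/20 mM HEPES/0.1% BSA/2.5 mM probenecid, pH 7.4, for 1 h at 37° C. Calcium mobilization then read by FLIPR at 23° C.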

[2] = target: T2, endogenous human UII receptor (Homo sapiens, UniProt Q9UKP6); assay: Human Radioligand Binding Assay ((^125I)-U-II binding to human skeletal muscle myoblasts)
T2 sequence (Q9UKP6 1-389): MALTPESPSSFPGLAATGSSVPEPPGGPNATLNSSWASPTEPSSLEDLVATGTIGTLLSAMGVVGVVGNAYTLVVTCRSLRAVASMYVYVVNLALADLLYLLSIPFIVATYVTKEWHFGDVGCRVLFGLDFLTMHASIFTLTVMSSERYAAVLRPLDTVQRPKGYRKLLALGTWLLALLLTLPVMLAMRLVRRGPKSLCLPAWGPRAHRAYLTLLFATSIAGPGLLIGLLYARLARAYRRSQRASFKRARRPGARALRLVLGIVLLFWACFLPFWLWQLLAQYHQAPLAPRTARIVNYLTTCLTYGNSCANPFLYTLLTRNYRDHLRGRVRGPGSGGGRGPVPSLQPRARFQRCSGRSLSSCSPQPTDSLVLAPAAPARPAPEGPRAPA

[3] = average value for the compound tested, read-out: Rat UII FLIPR Average IC50
[4] = Inhibition of Acetyl-cyclic[Cys-Phe-Trp-Lys-(2-Nal)-Cys]-NH2 induced Ca2+ mobilization (FLIPR) in CHO cells transfected with rat UII receptor, read-out: IC50
[5] = Inhibition of human UII binding to human skeletal muscle myoblasts containing endogenous human UII receptor

| IC50 [1, 3] | Ki [2] | inhibition at 10 µM [1] | inhibition at 50 µM [1] | IC50 [1, 4] | Ki [2, 5] | Compound | IC50 ([1]; IC50 (μM), Inhibition of Acetyl-cyclic[Cys-Phe-Trp-Lys-(2-Nal)-Cys]-NH2 induced Ca2+ mobilization (FLIPR) in CHO cells transfected with rat UII receptor) |
| --- | --- | --- | --- | --- | --- | --- | --- |
| 1.3 µM | > 10000 nM |  |  |  |  | COc1ccc(CN2C(=O)c3cccc(N4CCN(CC5CCCC5)CC4)c3C2=O)cc1OC [Cpd 80, 4-(4-cyclopentylmethyl-piperazin-1-yl)-2-(3,4-dimethoxy-benzyl)-isoindole-1,3-dione] |  |
| 0.23 µM | 1600 nM |  |  |  |  | COc1ccc(CN2C(=O)c3cccc(N4CCN(Cc5ccsc5)CC4)c3C2=O)cc1OC [Cpd 83, 2-(3,4-dimethoxy-benzyl)-4-(4-thiophen-3-ylmethyl-piperazin-1-yl)-isoindole-1,3-dione] |  |
| 0.014 µM | 59 nM |  |  |  |  | COc1ccc([C@@H](CCCNS(=O)(=O)C2CCS(=O)(=O)C2)N2C(=O)c3cccc(N4CCN([C@H](C)c5ccccc5)CC4)c3C2=O)cc1OC (stereo partly drawn) [Cpd 133, (R)-1,1-dioxo-tetrahydro-1λ^6-thiophene-3-sulfonic acid (4-(3,4-dimethoxy-phenyl)-4-{1,3-dioxo-4-[4-(1R)-(1-phenyl-ethyl)-piperazin-1-yl]-1,3-dihydro-isoindol-2-yl}-butyl)-amide] |  |
| 0.12 µM | > 300 nM |  |  |  |  | COc1ccc([C@@H](CCCNS(=O)(=O)c2cc(C)sc2C)N2C(=O)c3cccc(N4CCN([C@H](C)c5ccccc5)CC4)c3C2=O)cc1OC [Cpd 131, (R)-2,5-dimethyl-thiophene-3-sulfonic acid (4-(3,4-dimethoxy-phenyl)-4-{1,3-dioxo-4-[4-(1R)-(1-phenyl-ethyl)-piperazin-1-yl]-1,3-dihydro-isoindol-2-yl}-butyl)-amide] |  |
| 2.2 µM | 3600 nM |  |  |  |  | COc1ccc(CN2C(=O)c3cccc(N4CCN(Cc5ccccc5O)CC4)c3C2=O)cc1OC [Cpd 85, 2-(3,4-dimethoxy-benzyl)-4-[4-(2-hydroxy-benzyl)-piperazin-1-yl]-isoindole-1,3-dione] |  |
|  | 1500 nM | 98% | 99% | 0.96 µM |  | COc1ccc(CN2C(=O)c3cccc(C4CCN(Cc5ccccc5)CC4)c3C2=O)cc1OC [Cpd 76, 4-(1-benzyl-piperidin-4-yl)-2-(3,4-dimethoxy-benzyl)-isoindole-1,3-dione] |  |
| 1.2 µM | > 10000 nM |  |  |  |  | COc1ccc(CN2C(=O)c3cccc(N4CCN(Cc5cccnc5)CC4)c3C2=O)cc1OC [Cpd 79, 2-(3,4-dimethoxy-benzyl)-4-(4-pyridin-3-ylmethyl-piperazin-1-yl)-isoindole-1,3-dione] |  |
|  |  | 103% | 102% | 0.2 µM | 200 nM | COc1ccc(C(CCCNC(=O)OC(C)(C)C)N2C(=O)c3cccc(N4CCN([C@H](C)c5ccccc5)CC4)c3C2=O)cc1OC (stereo partly drawn) [Cpd 65, (4-(3,4-dimethoxy-phenyl)-4-{1,3-dioxo-4-[4-(1R)-(1-phenyl-ethyl)-piperazin-1-yl]-1,3-dihydro-isoindol-2-yl}-butyl)-carbamic acid tert-butyl ester] |  |

Further lines, the compound ahead of its results:

| Compound | IC50 [1, 3] | Ki [2] | inhibition at 10 µM [1] | inhibition at 50 µM [1] | IC50 [1, 4] | Ki [2, 5] | IC50 ([1]; IC50 (μM), Inhibition of Acetyl-cyclic[Cys-Phe-Trp-Lys-(2-Nal)-Cys]-NH2 induced Ca2+ mobilization (FLIPR) in CHO cells transfected with rat UII receptor) |
| --- | --- | --- | --- | --- | --- | --- | --- |
| CCC(c1ccc(OC)c(OC)c1)N1C(=O)c2cccc(N3CCN([C@H](C)c4ccccc4)CC3)c2C1=O (stereo partly drawn) [Cpd 8, 2-[1-(3,4-dimethoxy-phenyl)-propyl]-4-[4-(1R)-(1-phenyl-ethyl)-piperazin-1-yl]-isoindole-1,3-dione] |  |  | 100% | 100% | 0.18 µM | 310 nM |  |
| COc1ccc(C(C)N2C(=O)c3cccc(N4CCN([C@H](C)c5ccccc5)CC4)c3C2=O)cc1OC (stereo partly drawn) [Cpd 2, 2-[1-(3,4-dimethoxy-phenyl)-ethyl]-4-[4-(1R)-(1-phenyl-ethyl)-piperazin-1-yl]-isoindole-1,3-dione] |  |  | 101% | 103% | 0.07 µM | 310 nM |  |
| COc1ccc(C(CN(C)C)N2C(=O)c3cccc(N4CCN([C@H](C)c5ccccc5)CC4)c3C2=O)cc1OC (stereo partly drawn) [Cpd 63, 2-[1-(3,4-dimethoxy-phenyl)-2-dimethylamino-ethyl]-4-[4-(1R)-(1-phenyl-ethyl)-piperazin-1-yl]-isoindole-1,3-dione] |  | 2800 nM | 102% | 102% | 0.4 µM |  |  |
| COc1ccc(CN2C(=O)c3cccc(N4CCN(C(C)(C)c5ccccc5)CC4)c3C2=O)cc1OC [Cpd 28, 2-(3,4-dimethoxy-benzyl)-4-[4-(1-methyl-1-phenyl-ethyl)-piperazin-1-yl]-isoindole-1,3-dione] |  | 5500 nM | 75% | 101% | 4.2 µM |  |  |
| COc1ccc(CN2C(=O)c3cccc(N4CCN(Cc5ccccc5)CC4)c3C2=O)cc1OC [Cpd 5, 4-(4-benzyl-piperazin-1-yl)-2-(3,4-dimethoxy-benzyl)-isoindole-1,3-dione] |  | 1500 nM | 99% | 99% | 0.151 µM |  |  |
| COc1ccc(C(CCCNS(C)(=O)=O)N2C(=O)c3cccc(N4CCN([C@H](C)c5ccccc5)CC4)c3C2=O)cc1OC (stereo partly drawn) [Cpd 67, N-(4-(3,4-dimethoxy-phenyl)-4-{1,3-dioxo-4-[4-(1R)-(1-phenyl-ethyl)-piperazin-1-yl]-1,3-dihydro-isoindol-2-yl}-butyl)-methanesulfonamide] |  | 1400 nM | 101% | 99% | 0.1 µM |  | 0.11 µM |
| COc1cc(CN2C(=O)c3cccc(N4CCN([C@H](C)c5ccccc5)CC4)c3C2=O)ccc1O [Cpd 15, 2-(4-hydroxy-3-methoxy-benzyl)-4-[4-(1R)-(1-phenyl-ethyl)-piperazin-1-yl]-isoindole-1,3-dione] |  | 5200 nM | 100% | 100% | 0.82 µM |  |  |
| CCOc1ccc(CN2C(=O)c3cccc(N4CCN([C@H](C)c5ccccc5)CC4)c3C2=O)cc1OC [Cpd 18, 2-(4-ethoxy-3-methoxy-benzyl)-4-[4-(1R)-(1-phenyl-ethyl)-piperazin-1-yl]-isoindole-1,3-dione] |  | 2900 nM | 98% | 101% | 1.4 µM |  |  |
| COc1ccc(C(CCCNS(=O)(=O)c2cccs2)N2C(=O)c3cccc(N4CCN([C@H](C)c5ccccc5)CC4)c3C2=O)cc1OC (stereo partly drawn) [Cpd 68, thiophene-2-sulfonic acid (4-(3,4-dimethoxy-phenyl)-4-{1,3-dioxo-4-[4-(1R)-(1-phenyl-ethyl)-piperazin-1-yl]-1,3-dihydro-isoindol-2-yl}-butyl)-amide] |  |  | 98% | 99% | 0.1 µM and 0.08 µM | 76 nM |  |
| COc1ccc(CN2C(=O)c3cccc(N4CCN([C@H](C)c5ccccc5)CC4)c3C2=O)cc1OC [Cpd 1, 2-(3,4-dimethoxy-benzyl)-4-[4-(1R)-(1-phenyl-ethyl)-piperazin-1-yl]-isoindole-1,3-dione] |  |  | 99% | 99% | 0.046 µM and 0.084 µM | 570 nM |  |
| COc1ccc([C@@H](C)N2C(=O)c3cccc(N4CCN([C@H](C)c5ccccc5)CC4)c3C2=O)cc1OC [Cpd 4, (R)-2-[1-(3,4-dimethoxy-phenyl)-ethyl]-4-[4-(1R)-(1-phenyl-ethyl)-piperazin-1-yl]-isoindole-1,3-dione] |  |  | 100% | 100% | 0.15 µM | 230 nM |  |
| COc1ccc(CN2C(=O)c3cccc(C4=CCN(Cc5ccccc5)CC4)c3C2=O)cc1OC [Cpd 19, 4-(1-benzyl-1,2,3,6-tetrahydro-pyridin-4-yl)-2-(3,4-dimethoxy-benzyl)-isoindole-1,3-dione] |  | 5200 nM | 94% | 100% | 1.5 µM |  |  |
| COc1ccc([C@H](C)N2C(=O)c3cccc(N4CCN([C@H](C)c5ccccc5)CC4)c3C2=O)cc1OC [Cpd 3, 2-[(S)-1-(3,4-dimethoxy-phenyl)-ethyl]-4-[4-(1R)-(1-phenyl-ethyl)-piperazin-1-yl]-isoindole-1,3-dione] |  |  | 100% | 101% | 0.13 µM | 160 nM |  |
| CCC(c1ccccc1)N1CCN(c2cccc3c2C(=O)N(Cc2ccc(OC)c(OC)c2)C3=O)CC1 (centres unmarked) [Cpd 13, 2-(3,4-dimethoxy-benzyl)-4-[4-(1-phenyl-propyl)-piperazin-1-yl]-isoindole-1,3-dione] |  | 4000 nM | 95% | 99% | 0.41 µM |  |  |
